“Also recorded” adds a separate entry of the source.

The record followed here is US20080014253A1, “Lipid-Based Drug Delivery Systems Containing Unnatural Phospholipase A2 Degradable Lipid Derivatives and the Therapeutic Uses Thereof” (priority 2004, published 2008).

The format of series [1] is physicochemical. The conditions noted are these: for Main-transition Tm (peak position) / Pre-transition Tm (peak position): multilamellar liposomes, scan rate 20° C./h; for pre-transition of the lipid membrane (Cp-curves): one-component multilamellar liposomes. Here is the method: FIG. 3. Heat capacity, CP, obtained using differential scanning calorimetry at a scan rate of 20° C./h for 0.15 mM multilamellar liposomes: (A) 1-O-DPPC′ (left), DPPC (middle), and 1-O-DPPC (right). (B) 1-O-DPPG′ (left), DPPG (middle) and 1-O-DPPG (right).
By replacing the ester linkage in the C-1 position with an ether bond, these unnatural phospholipids can furthermore be used as novel prodrug anticancer lipids to make liposomal microcarriers that can be degraded to active anticancer lysoetherlipids by PLA2 [27]. The lipid prodrug analogs (1-O-DPPC and 1-O-DPPG) were synthesized as described earlier. 1,2-dipalmitoyl-sn-glycero-3-phosphocholine (DPPC), 1,2-dipalmitoyl-sn-glycero-3-phosphoglycerol (DPPG), and 1,2-distearoyl-sn-glycero-3-phosphoethanolamine poly(ethylene glycol)2000 (DSPE-PEG2000) were purchased from Avanti Polar Lipids, AL, USA. Multi- and unilamellar liposomes were hydrated in a HEPES buffer solution (10 mM HEPES, 110 mM KCl, 1 mM NaN3, 30 μM CaCl2, 10 μM NaEDTA, pH 7.5) and prepared as described in previous work. Differential scanning calorimetry was carried out in the upscan mode at a scanrate of 20° C./h using multilamellar liposomes. The PLA2 lag time measurements on 1-O-DPPC′ unilamellar liposomes incorporated with small amounts of 1-O-DPPG′ or DSPE-PEG2000 lipids were performed in the gel-to-fluid main phase transition range and the degree of lipid hydrolysis was analyzed using HPLC techniques.
The heat capacity (Cp) curves obtained using differential scanning calorimetry are shown in FIG. 3 for one-component 1-O-DPPC′ and 1-O-DPPG′ multilamellar liposomes. The Cp-curves show a main peak at 40.1° C. and 40.6° C. reflecting the chain disordering gel-to-fluid main phase transition of the 1-O-DPPC′ and 1-O-DPPG′ lipid membranes, respectively. […] This leads to the formation of low temperature ordered and non-corrugated gel phase (Lβ) that prevails until the unset of the main transition giving rise to a concomitant increase in the integrated melting enthalpy of the main transition (Table 1). Since the 1-O-DPPC′ and 1-O-DPPG′ lipids undergo a transition from an ordered configuration in the low temperature non-corrugated gel phase to a disordered configuration in the high temperature fluid phase without passing through the ripple phase, the integrated melting enthalpy is expected to be higher than for the natural DPPC and DPPG ripple phase forming lipids, which undergo a transition to the fluid phase from a ripple phase with a higher energy than the non-corrugated gel phase. In order to exclude the possibility that the abolished ripple transition is due to having an ether bond in the C-1 position, we have in FIG. 3 also shown Cp-curves obtained on 1-O-DPPC and 1-O-DPPG multilamellar liposomes. Clearly, these Cp-curves show the same characteristic phase behavior as the natural DPPC and DPPG lipids with a pre-transition a few degrees below the main phase transition peak underlining that it is the position of the phosphate head group in the C-3 position on the natural phospholipids that is crucial for ripple formation.

Series [2] deals with T1, human secretory PLA2 (Homo sapiens, UniProt P14555).
T1 construct: from tissue; host or cells: freshly prepared human tear fluid
T1 sequence (P14555 21-144): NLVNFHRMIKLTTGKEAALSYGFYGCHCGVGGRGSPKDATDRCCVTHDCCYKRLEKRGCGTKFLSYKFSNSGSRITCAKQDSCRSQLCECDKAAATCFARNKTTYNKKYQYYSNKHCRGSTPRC
The series can be described thus: Hydrolysis of unilamellar liposomes by human secretory PLA2 from human tear fluid. The format is biochemical. As to the method:
FIG. 4. Characteristic reaction time profiles at 40° C. for PLA2 hydrolysis of unilamellar. (A) 0.15 mM 1-O-DPPC′ liposomes incubated with 150 nM PLA2 (A. piscivorus piscivorus). (B) 0.15 mM 1-O-DPPG′ liposomes incubated with human secretory PLA2 from 20 μL freshly prepared human tear fluid (B). The PLA2 hydrolysis reaction is monitored by intrinsic fluorescence (solid line) from the enzyme and 90° static light scattering (dashed lines) from the lipid suspension. After adding PLA2 to the equilibrated liposome suspension a characteristic lag time, τ, follows before a sudden increase in the catalytic activity takes place (A).
FIG. 6. (A) PLA2 (A. piscivorus piscivorus) hydrolysis of 1-O-DPPC′ liposomes containing 0 mol % (▪), 2 mol % (▴), and 10 mol % (∘) 1-O-DPPG′ lipids, and 5 mol % (▾) DSPE-PEG2000 polymer lipids determined by HPLC [28]. The percent lipid hydrolysis is determined 1000 s after the unset of the burst. The concentration of the liposomes was 0.15 mM and the concentration of PLA2 was 150 nM. (B) Hydrolysis of 1-O-DPPG′ unilamellar liposomes determined by HPLC [28]. The PLA2 catalyzed lipid hydrolysis is determined as a function of time after addition of 20 μL freshly prepared human tear fluid to 0.15 mM 1-O-DPPG′ liposomes. […]

`CCCCCCCCCCCCCCCCOC[C@H](COP(=O)([O-])OCC[N+](C)(C)C)OC(=O)CCCCCCCCCCCCCCC` [1-O-DPPC, 1-O-hexadecyl-2-hexadecanoyl-sn-glycero-3-phosphocholine]: in series [1], the “Main-transition ΔHm (melting enthalpy)” value was found to be 8.5 kcal/mol, the “Pre-transition ΔH (melting enthalpy)” value was 0.84 kcal/mol, the “Main-transition Tm (peak position)” value worked out at 42.6 °C and the “Pre-transition Tm (peak position)” value stood at 32.0 °C.

Turning to “(S)-1-O-hexadecyl-3-hexadecanoyl-glycero-2-phosphoglycerol [1-O-DPPG′]”, the “onset of hydrolysis / lag time” value in series [2] (0.15 mM liposomes, 20 μL human tear fluid, 40° C.) is recorded as “immediate hydrolysis; also recorded: becomes active immediately after addition”. Moreover, in series [2] (liposomes formed by the lipid), the “activity of human secretory PLA2 towards liposomes” value is “high activity; also recorded: superior substrates”. Besides, in series [1], the “Main-transition ΔHm (melting enthalpy)” value is reported as 11.3 kcal/mol, the “Main-transition Tm (peak position)” value worked out at 40.6 °C and the “pre-transition of the lipid membrane (Cp-curves)” value is “abolished”.

`CCCCCCCCCCCCCCCC(=O)OC[C@H](COP(=O)([O-])OCC[N+](C)(C)C)OC(=O)CCCCCCCCCCCCCCC` [DPPC, 1,2-dipalmitoyl-sn-glycero-3-phosphocholine]: in series [1], the “Main-transition ΔHm (melting enthalpy)” value stood at 8.7 kcal/mol, the “Pre-transition ΔH (melting enthalpy)” value is given as 1.2 kcal/mol, the “Main-transition Tm (peak position)” value was found to be 40.5 °C and the “Pre-transition Tm (peak position)” value was found to be 31.9 °C.

As for `CCCCCCCCCCCCCCCC(=O)OC[C@H](COP(=O)(O)OCC(O)CO)OC(=O)CCCCCCCCCCCCCCC` (stereo partly drawn) [DPPG, 1,2-dipalmitoyl-sn-glycero-3-phosphoglycerol], in series [1], the “Main-transition ΔHm (melting enthalpy)” value was determined as 9.8 kcal/mol, the “Pre-transition ΔH (melting enthalpy)” value came to 1.31 kcal/mol, the “Main-transition Tm (peak position)” value amounted to 40.6 °C and the “Pre-transition Tm (peak position)” value was 34.3 °C.

Turning to “1-O-hexadecyl-2-hexadecanoyl-sn-glycero-3-phosphoglycerol [1-O-DPPG]”, in series [1], the “Main-transition ΔHm (melting enthalpy)” value was 9.1 kcal/mol, the “Pre-transition ΔH (melting enthalpy)” value is given as 0.58 kcal/mol, the “Main-transition Tm (peak position)” value stood at 41.8 °C and the “Pre-transition Tm (peak position)” value was found to be 34.1 °C.

Take `CCCCCCCCCCCCCCCCOC[C@@H](COC(=O)CCCCCCCCCCCCCCC)OP(=O)([O-])OCC[N+](C)(C)C` [1-O-DPPC′, (S)-1-O-hexadecyl-3-hexadecanoyl-glycero-2-phosphocholine]: in series [1], the “Main-transition ΔHm (melting enthalpy)” value stood at 12.8 kcal/mol, the “Main-transition Tm (peak position)” value was 40.1 °C and the “pre-transition of the lipid membrane (Cp-curves)” value is reported as “abolished”.
